Source: US8962860B2, “Inhibitors of glutaminyl cyclase” (Probiodrug AG, priority 2008, dated 2015)

Tests used:
[1] = Log BB screen: brain compound level and log BB in mice; type: in vivo; details: single i.v. injection; for concentration at 1 h: iv, 10 mg/ml, mouse, brain, read-out: Brain concentration 1 h after application
Experimental: Screening for brain compound level and log BB was done in mice. Compound was applied by a single i.v. injection. […] At least 3 animals were analyzed per compound. Animals were sacrificed 1 h after compound application and blood was collected by heart puncture. Serum was prepared from blood. Animals were perfused with PBS and brains were collected. Compound level in serum and brain were determined by HPLC-MS/MS analysis. Log BB were calculated as follows: [formula]

[2] = system: pGlu-Aβ3-42 in transgenic (tg) mice, which overexpress human AβQ3-42; test: Treatment of Aβ-transgenic mice, pGlu-Aβ ELISA of brain homogenates; type: in vivo
Experimental: 6 (1-(1H-benzo[d]imidazol-5-yl)-5-(4-propoxyphenyl)imidazolidine-2,4-dion). Example compound 6 was implemented into the chow and the transgenic animals were treated orally. The treatment is specified in the table below. The mice used in this study were produced as described in WO 2009/034158.
Following treatment, tg mice were sacrificed, the brains were removed from the skull, flushed with ice cold saline and placed shortly on filter paper. Brain tissues without cerebellum were homogenized (Dounce homogenizer) in 2.5 ml 2% SDS in distilled water (SDS wash fraction), sonificated and centrifuged at 75,500×g for 1 hour at 4° C. The supernatant was removed and the pellet resuspended in 0.5 ml 70% formic acid (formic acid fraction) and neutralized by addition of 9.5 ml 1 M Tris solution. The formic acid (FA) is considered as the homogenate containing the highly insoluble Aβ peptides, including pGlu-Aβ species (Kawarabayashi et al., (2001), J. Neurosci. 21, 372-381). Aβx-40, Aβx-42 and Aβ3(pE)-42 specific sandwich ELISAs (all from IBL, Hamburg, Germany) were performed according to the manufacturer's manual. Samples were diluted to fit within the range of the standard curve using EIA buffer, which is supplied with the ELISA kits.

SMILES | concentration at 1 h [1] [ng/g] | logBB mouse 1 h after i.v. injection [1] | pGlu-Aβ3-42 concentration in formic acid extracts ([2]; tg mice treated orally via chow (4.8 g/kg) for two months, vs placebo) | pGlu-Aβ3-42 concentration in formic acid extracts, brainstem ([2]; tg mice treated orally via chow for two months, brainstem)
O=C1NC(=O)N(c2ccc3[nH]cnc3c2)C1c1ccc(Cl)c(C(F)(F)F)c1 (stereo not shown) [Example 7, 1-(1H-benzo[d]imidazol-5-yl)-5-(4-chloro-3-(trifluoromethyl)phenyl)imidazolidine-2,4-dione] | 38.2 | −2.5 | – | –
CCCOc1ccc(C2C(=O)NC(=O)N2c2ccc3[nH]cnc3c2)cc1 (racemic) [Example 6, 1-(1H-benzo[d]imidazol-5-yl)-5-(4-propoxyphenyl)imidazolidine-2,4-dione] | 126 | −1.6 | significant reduction | below the limit of detection
Cc1ccc(O)c(C2C(=O)NC(=O)N2c2ccc3[nH]cnc3c2)c1 (stereo not shown) [Example 3, 1-(1H-benzo[d]imidazol-5-yl)-5-(2-hydroxy-5-methylphenyl)imidazolidine-2,4-dione] | 17.1 | −1.42 | – | –
O=C1NC(=O)N(c2ccc3[nH]cnc3c2)C1c1ccc2nsnc2c1 (stereo not shown) [Example 1, 5-(benzo[c][1,2,5]thiadiazol-6-yl)-1-(1H-benzo[d]imidazol-5-yl)imidazolidine-2,4-dione] | 118 | −0.67 | – | –
O=C1NC(=O)N(c2ccc3[nH]cnc3c2)C1c1ccc(Cl)cc1 (stereo not shown) [Example 13, 1-(1H-benzo[d]imidazol-5-yl)-5-(4-chlorophenyl)imidazolidine-2,4-dione] | 31.4 | −1.4 | – | –
O=C1NC(=O)N(c2ccc3[nH]cnc3c2)C1c1ccccc1Cl (stereo not shown) [Example 14, 1-(1H-benzo[d]imidazol-5-yl)-5-(2-chlorophenyl)imidazolidine-2,4-dione] | 20.2 | −1.6 | – | –
O=C1NC(=O)C2(Cc3ccccc3C2)N1c1ccc2[nH]cnc2c1 [Example 32, 3-(1H-benzimidazol-5-yl)-1,3′-dihydro-2H,5H-spiro[imidazolidine-4,2′-indene]-2,5-dione] | 11.7 | −1.2 | – | –
